# Data published in patent publication US20240116877A1, “KIT KINASE INHIBITORS AND METHODS OF USE THEREOF” (Deciphera Pharmaceuticals, LLC, priority 2021, published 2024).
# Like-named read-outs stand apart in the source and are kept apart here.
# Experiments:
# c-KIT kinase (uKIT) = c-KIT kinase (uKIT) (Homo sapiens (Human), UniProt P10721); assay: Biochemical Assay for uKIT (coupled pyruvate kinase/lactate dehydrogenase assay); conditions: Inhibition of biochemical activity of uKIT kinase; 1 mM ATP
# In short: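 Continuous coupled PK/LDH assay following NADH oxidation at 340 nm for 6 h at 30° C, with 16 nM or 4.36 nM KIT (two constructs), 0.7 mg/mL PE4Y, 1 mM ATP, pH 7.5. Rates from the 2-3 h window converted to percent inhibition versus controls; IC50 fitted.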
# Ba/F3 KIT mutant cells = assay: Ba/F3 mutant KIT Cell Proliferation Assays (resazurin); type: cell-based; conditions: Mus musculus, BaF3
# In short: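 IC50 values come from resazurin fluorescence (ex 540, em 600) after 5 h dye exposure, added as a 440 μM solution. Cells were IL-3-independent Ba/F3 expressing mutant KIT from a lentiviral vector, puromycin-selected.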
# GIST 430 cells = assay: GIST 430 Cell Proliferation Assay (resazurin); type: cell-based; conditions: Homo sapiens; GIST430 cell proliferation
# In short: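 Five thousand cells per well were exposed to serially diluted compound in complete growth medium for 115 h at 37 degrees Celsius, 5% CO2. Resazurin was then added for a further 5 h, fluorescence read at 540 nm excitation/600 nm emission, and IC50 values calculated.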
# [1] = Ba/F3 KIT AYdup-V654A mutant cell proliferation, read-out: AYdup-V654A IC50
# [2] = Ba/F3 KIT exon11del-V654A mutant cell proliferation, read-out: exon11del-V654A IC50
# [3] = Ba/F3 KIT exon11del-Y823D mutant cell proliferation, read-out: exon11del-Y823D IC50
# [4] = Ba/F3 KIT AYdup-D816G mutant cell proliferation, read-out: AYdup-D816G IC50
# [5] = Ba/F3 KIT AYdup mutant cell proliferation, read-out: AYdup IC50
# c-KIT kinase (uKIT), sequence (P10721 other isoform, or with tags, fused parts or gaps): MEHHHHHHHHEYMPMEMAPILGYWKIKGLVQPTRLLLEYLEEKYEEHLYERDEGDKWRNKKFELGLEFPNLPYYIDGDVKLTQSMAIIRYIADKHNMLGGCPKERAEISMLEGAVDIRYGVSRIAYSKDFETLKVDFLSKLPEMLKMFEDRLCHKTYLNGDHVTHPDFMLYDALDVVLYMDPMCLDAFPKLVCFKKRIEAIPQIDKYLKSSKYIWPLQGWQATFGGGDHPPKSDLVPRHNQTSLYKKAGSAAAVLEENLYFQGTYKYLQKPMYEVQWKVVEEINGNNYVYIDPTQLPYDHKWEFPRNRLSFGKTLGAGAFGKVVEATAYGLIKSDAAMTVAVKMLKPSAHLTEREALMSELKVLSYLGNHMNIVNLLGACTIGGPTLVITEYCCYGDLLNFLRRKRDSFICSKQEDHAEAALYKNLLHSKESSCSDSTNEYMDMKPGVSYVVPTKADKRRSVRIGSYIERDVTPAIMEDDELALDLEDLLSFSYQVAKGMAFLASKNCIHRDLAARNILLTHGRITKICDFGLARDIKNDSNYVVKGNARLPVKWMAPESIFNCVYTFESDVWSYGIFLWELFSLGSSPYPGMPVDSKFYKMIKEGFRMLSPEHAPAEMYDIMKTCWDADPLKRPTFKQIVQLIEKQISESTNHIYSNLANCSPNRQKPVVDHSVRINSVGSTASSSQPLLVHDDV
SMILES,IC50 (c-KIT kinase (uKIT)),IC50 (Ba/F3 KIT mutant cells; [1]),IC50 (Ba/F3 KIT mutant cells; [2]),IC50 (Ba/F3 KIT mutant cells; [3]),IC50 (GIST 430 cells),IC50 (Ba/F3 KIT mutant cells; [4]),IC50 (Ba/F3 KIT mutant cells; [5])
COCCOc1cc(F)c2c(Nc3ccc(NC(=O)NCCC(C)(C)F)cc3F)ncnc2c1 [Example 65],≤ 0.01 µM,0.01 to 0.1 µM,≤ 0.01 µM,0.1 to 1 µM,0.01 to 0.1 µM,,
CN(C)CCOc1cc(F)c2c(Nc3ccc(NC(=O)NCCC(C)(C)F)cc3)ncnc2c1 [Example 68],≤ 0.01 µM,0.01 to 0.1 µM,≤ 0.01 µM,0.1 to 1 µM,≤ 0.01 µM,,
COCCOc1cc(F)c2c(Nc3ccc(NC(=O)NC4CCC(C(F)(F)F)CC4)cc3)ncnc2c1 (centres unmarked) [Example 15],≤ 0.01 µM,0.01 to 0.1 µM,0.01 to 0.1 µM,0.1 to 1 µM,0.01 to 0.1 µM,0.01 to 0.1 µM,
COCCOc1cc(F)c2c(Nc3ccc(NC(=O)C4(C(=O)N(C)CC(C)C)CC4)cc3)ncnc2c1 [Example 72],> 1 µM,> 1 µM,0.1 to 1 µM,,0.1 to 1 µM,,
COCCOc1cc(F)c2c(Nc3ccc(NC(=O)CC(=O)NCC4CC(C)(C)C4)cc3)ncnc2c1 [Example 136],0.01 to 0.1 µM,0.01 to 0.1 µM,≤ 0.01 µM,0.1 to 1 µM,0.01 to 0.1 µM,,
COCCOc1cc(F)c2c(Nc3ccc(NC(=O)NCCC4CCOCC4)cc3)ncnc2c1 [Example 61],0.01 to 0.1 µM,0.01 to 0.1 µM,≤ 0.01 µM,0.01 to 0.1 µM,≤ 0.01 µM,≤ 0.01 µM,≤ 0.01 µM
COCCOc1cc(F)c2c(Nc3ccc(NC(=O)CC(=O)NCC4CC5(CCC5)C4)cc3)ncnc2c1 [Example 118],≤ 0.01 µM,0.01 to 0.1 µM,≤ 0.01 µM,0.01 to 0.1 µM,0.01 to 0.1 µM,,
CN1CC[C@H](Oc2cc(F)c3c(Nc4ccc(NC(=O)NCCC(C)(C)F)cc4)ncnc3c2)C1 [Example 172],0.01 to 0.1 µM,0.01 to 0.1 µM,0.01 to 0.1 µM,0.01 to 0.1 µM,0.01 to 0.1 µM,,
COCCOc1cc(F)c2c(Nc3ccc(NC(=O)NCCC(C)(C)C#N)cc3)ncnc2c1 [Example 26],≤ 0.01 µM,0.01 to 0.1 µM,0.01 to 0.1 µM,0.01 to 0.1 µM,0.01 to 0.1 µM,≤ 0.01 µM,≤ 0.01 µM
COCCOc1cc(F)c2c(Nc3ccc(NC(=O)CC(=O)N4CCC(C)(C)C4)cc3)ncnc2c1 [Example 141],0.01 to 0.1 µM,0.01 to 0.1 µM,≤ 0.01 µM,0.01 to 0.1 µM,0.01 to 0.1 µM,0.01 to 0.1 µM,≤ 0.01 µM
COCCOc1cc(F)c2c(Nc3ccc(NC(=O)CC(=O)NCC4CC4)cc3)ncnc2c1 [Example 77],0.01 to 0.1 µM,0.01 to 0.1 µM,≤ 0.01 µM,0.1 to 1 µM,0.01 to 0.1 µM,,
COCCOc1cc(F)c2c(Nc3ccc(NC(=O)COCC(C)C)cc3)ncnc2c1 [Example 49],≤ 0.01 µM,0.1 to 1 µM,0.01 to 0.1 µM,0.1 to 1 µM,0.01 to 0.1 µM,0.01 to 0.1 µM,≤ 0.01 µM
COCCOc1cc(F)c2c(Nc3ccc(NC(=O)NCCC(C)(C)OC)cc3)ncnc2c1 [Example 10],≤ 0.01 µM,0.01 to 0.1 µM,≤ 0.01 µM,0.01 to 0.1 µM,≤ 0.01 µM,≤ 0.01 µM,≤ 0.01 µM
"COCCOc1cc(F)c2c(Nc3ccc(NC(=O)CC(=O)NCC(C)(C)C)cc3)ncnc2c1 [Example 4, N1-(4-((5-fluoro-7-(2-methoxyethoxy)quinazolin-4-yl)amino)phenyl)-N3-neopentylmalonamide]",0.01 to 0.1 µM,0.01 to 0.1 µM,0.01 to 0.1 µM,0.01 to 0.1 µM,≤ 0.01 µM,0.01 to 0.1 µM,0.01 to 0.1 µM
COCCOc1cc(F)c2c(Nc3ccc(NC(=O)CC(=O)NCC4(C)CC4)cc3)ncnc2c1 [Example 85],≤ 0.01 µM,0.01 to 0.1 µM,≤ 0.01 µM,0.1 to 1 µM,≤ 0.01 µM,,
COCCOc1cc(F)c2c(Nc3ccc(NC(=O)CC(=O)NC[C@@H]4CCCO4)cc3)ncnc2c1 [Example 121],0.1 to 1 µM,0.1 to 1 µM,0.01 to 0.1 µM,> 1 µM,0.1 to 1 µM,,
COCCOc1cc(F)c2c(Nc3ccc(NC(=O)CC(=O)N4CCCC[C@H]4C(F)(F)F)cc3)ncnc2c1 [Example 171],0.01 to 0.1 µM,0.01 to 0.1 µM,0.01 to 0.1 µM,≤ 0.01 µM,0.01 to 0.1 µM,,
COCCOc1cc(F)c2c(Nc3ccc(NC(=O)CC(=O)NC4CC4)cc3)ncnc2c1 [Example 94],0.1 to 1 µM,0.1 to 1 µM,0.1 to 1 µM,,0.1 to 1 µM,,
COCCOc1cc(F)c2c(Nc3ccc(NC(=O)CC(=O)NC4CCC4)cc3)ncnc2c1 [Example 95],≤ 0.01 µM,0.01 to 0.1 µM,≤ 0.01 µM,0.01 to 0.1 µM,≤ 0.01 µM,0.01 to 0.1 µM,≤ 0.01 µM
COCCOc1cc(F)c2c(Nc3ccc(NC(=O)CC(=O)NC4CC(C)(C)C4)cc3)ncnc2c1 [Example 112],0.01 to 0.1 µM,0.01 to 0.1 µM,≤ 0.01 µM,0.01 to 0.1 µM,≤ 0.01 µM,0.01 to 0.1 µM,≤ 0.01 µM
COCCOc1cc(F)c2c(Nc3ccc(NC(=O)CC(=O)N(C)C(C)(C)C)cc3)ncnc2c1 [Example 143],0.01 to 0.1 µM,0.01 to 0.1 µM,≤ 0.01 µM,0.01 to 0.1 µM,≤ 0.01 µM,0.01 to 0.1 µM,≤ 0.01 µM
COCCOc1cc(F)c2c(Nc3ccc(NC(=O)CC(=O)N(C)C(C)C)cc3)ncnc2c1 [Example 74],0.01 to 0.1 µM,0.01 to 0.1 µM,0.01 to 0.1 µM,0.1 to 1 µM,0.01 to 0.1 µM,,
COCCOc1cc(F)c2c(Nc3ccc(NC(=O)NC4CC(C)(C)C4)cc3)ncnc2c1 [Example 8],≤ 0.01 µM,0.01 to 0.1 µM,0.01 to 0.1 µM,0.1 to 1 µM,0.01 to 0.1 µM,0.01 to 0.1 µM,≤ 0.01 µM
COCCOc1cc(F)c2c(Nc3ccc(NC(=O)CC(=O)NC4CCCCC4)cc3)ncnc2c1 [Example 97],≤ 0.01 µM,0.01 to 0.1 µM,≤ 0.01 µM,0.01 to 0.1 µM,≤ 0.01 µM,0.01 to 0.1 µM,≤ 0.01 µM
COCCOc1cc(F)c2c(Nc3ccc(NC(=O)CC(=O)N(C(C)C)C(C)C)cc3)ncnc2c1 [Example 163],0.1 to 1 µM,0.1 to 1 µM,> 1 µM,0.1 to 1 µM,0.1 to 1 µM,,
COCCOc1cc(F)c2c(Nc3ccc(NC(=O)NCCC4(OC)CC4)cc3)ncnc2c1 [Example 32],≤ 0.01 µM,0.01 to 0.1 µM,0.01 to 0.1 µM,0.01 to 0.1 µM,0.01 to 0.1 µM,≤ 0.01 µM,≤ 0.01 µM
COCCOc1cc(F)c2c(Nc3ccc(NC(=O)CC(=O)NC4CC5(CCC5)C4)cc3)ncnc2c1 [Example 135],≤ 0.01 µM,≤ 0.01 µM,≤ 0.01 µM,0.01 to 0.1 µM,≤ 0.01 µM,,
